From patent publication USRE50282E1, “Specific modification of antibody with IgG-binding peptide” (KAGOSHIMA UNIVERSITY, priority 2015, dated 2025)
*1 amine or outer side, *2 acyl side, *3 side chain or, on linkers, in order; H or OH if unused. Where a SMILES comes first, the peptide text is derived from it. Bridges are numbered along the chain shown (N, C = ends). Where no end group is shown, it is not given here. [ ]: non-standard residue; d: D form. The star is where a group is joined. DSS = disuccinimidyl suberate, reactive NHS group, O=C(CCCCCCC(=O)*)ON1C(=O)CCC1=O; Dolaproine = CO[C@@H]([C@@H]1CCCN1)[C@@H](C)C(=O)O; Hexanoyl(6-maleimido) = O=C1C=CC(=O)N1CCCCCC(=O)*; Biotin = O=C1N[C@H]2[C@H](CS[C@H]2CCCCC(=O)*)N1; Dil = CC[C@H](C)[C@H](NC)[C@@H](CC(=O)O)OC; PABC = O=C(OCc1ccc(N[*:1])cc1)[*:2]; X1 = C[C@@H](N*)[C@@H](O)c1ccccc1; PEG5 = NCCOCCOCCOCCOCCOCCC(=O)O; Cit = NC(=O)NCCC[C@H](N)C(=O)O; NMeV = CN[C@H](C(=O)O)C(C)C

Assays:
human IgG [1] = biological target: T1, human IgG (Homo sapiens, UniProt P01857); format: binding; conditions: SPR; peptides N-terminally blocked with biotinylated PEG4; NHS group hydrolysed
Method: 0.4 M EDC (1-ethyl-3-(3-dimethylaminopropyl)-carbodiimide) and 0.1 M sulfo-NHS (sulfo-N-hydroxysuccinimide) were mixed in equal amounts and then injected onto a CM5 sensor chip loaded in BIAcore T200 (GE Healthcare Japan Corp.) for 7 minutes at a flow rate of 10 μl/ml to activate the sensor chip. IgG was immobilized thereonto in an amount of 4000 to 5000 in terms of RU value under conditions of pH 4.0 (10 mM sodium acetate). While a HBS-EP buffer solution (0.01 M HEPES, 0.15 M NaCl, 0.005% TWEEN® 20, and 3 mM EDTA, pH 7.0) was used, binding reaction was monitored by the injection of the peptide at a concentration of 10 nM to 2 μM for 180 seconds at a flow rate of 50 μl/ml. Then, dissociation reaction was assayed by washing with a buffer solution for 600 seconds. Binding parameters were analyzed using BIAevalution T100 software.

SK-BR3 cells [2] = experiment: Cell growth inhibition, Cell Counting Kit-8, 72 hours (Examples 11 and 12); format: cell-based; conditions: 0 to 500 nM
Method: After culture at 37° C. for 24 hours in a 5% CO2 incubator, 100 μL of a medium containing each concentration of the antibody-drug conjugate (ADC) prepared as described above was added to each well, and the cells were further cultured at 37° C. for 72 hours in a CO2 incubator. 10 μL of Cell Counting Kit-8 (Dojindo Laboratories) was added to each well. After incubation at 37° C. for 2 hours in a CO2 incubator, the absorbance at 450 nm was measured using a plate reader.
After culture at 37° C. for 24 hours in a 5% CO2 incubator, 100 μL of a medium containing each concentration of the antibody-drug conjugate (ADC) was added to each well, and the cells were further cultured at 37° C. for 72 hours in a CO2 incubator. 10 μL of Cell Counting Kit-8 (Dojindo Laboratories) was added to each well. After incubation at 37° C. for 2 hours in a CO2 incubator, the absorbance at 450 nm was measured using a plate reader.

human IgG Fc = biological target: T2, human IgG Fc (Homo sapiens, UniProt P01857); experiment: Cross-linking reaction with Fc analyzed by ion-exchange chromatography (Examples 6 and 7); format: biochemical; conditions: for unreacted form (peak 2) produced: 15 minutes
T2 construct: human IgG (Chugai Pharmaceutical Co., Ltd.) Fc solution; purchased Chugai Pharmaceutical Co., Ltd
Method: The reaction was terminated by the addition of 10 μL of 1 M Tris-HCl (pH 7.0). 50 μL of the reaction product was injected to NGC Chromatography system (Bio-Rad Laboratories, Inc.) connected with Shodex IEC SP-825 column, followed by gradient elution from a 25 mM acetate buffer (pH 4.5) to a 25 mM acetate buffer (pH 4.5) containing 1 M NaCl. The protein elution was monitored on the basis of absorbance at 215 nm. Each obtained peak was separated and subjected to molecular weight measurement by LC/MS.
20 μL of the obtained fraction of the peak was injected to Shimadzu LCMS-8030 connected with Waters ACQUITY UPLC BEH C8 (1.7 μm, 2.1 mm×100 mm) column, followed by gradient elution from 4% acetonitrile containing 0.1% formic acid to 60% acetonitrile containing 0.1% formic acid. The eluted peaks were subjected to mass spectrometry, and the masses were calculated by deconvolution from polyvalent ion peaks using analytical software.
1.0 μL (molar ratio: 1.0) of the DSG-modified IgG-binding peptide (4 mM) dissolved in DMF, prepared in Example 5 was added to 200 μL of a human IgG Fc solution prepared at pH 4.0 (25 mM acetate buffer solution), pH 5.5 (25 mM acetate buffer solution), or pH 7.0 (PBS), and the mixture was rapidly stirred and then reacted at room temperature. 1, 5, 10, or 30 minutes after the start of the reaction, the reaction was terminated by the addition of 10 μL of 1 M Tris-HCl (pH 7.0). 50 μL of the reaction product was injected to NGC Chromatography system (Bio-Rad Laboratories, Inc.) connected with Shodex IEC SP-825 column, followed by gradient elution from a 25 mM acetate buffer (pH 4.5) to a 25 mM acetate buffer (pH 4.5) containing 1 M NaCl. The protein elution was monitored on the basis of absorbance at 215 nm. On the basis of the obtained chromatogram, the percentage of each peak was calculated.

[3] = biological target: T3, rabbit IgG (polyclonal antibody) (Oryctolagus cuniculus, UniProt P01870); experiment: Labeling of various IgG, SDS-PAGE and Western blot with HRP-labeled streptavidin (Example 13); format: binding; conditions: antibody:peptide 1:4; 30 minutes
T3 construct: purchased Thermo Fisher Scientific Inc
T3 sequence (P01870 whole entry): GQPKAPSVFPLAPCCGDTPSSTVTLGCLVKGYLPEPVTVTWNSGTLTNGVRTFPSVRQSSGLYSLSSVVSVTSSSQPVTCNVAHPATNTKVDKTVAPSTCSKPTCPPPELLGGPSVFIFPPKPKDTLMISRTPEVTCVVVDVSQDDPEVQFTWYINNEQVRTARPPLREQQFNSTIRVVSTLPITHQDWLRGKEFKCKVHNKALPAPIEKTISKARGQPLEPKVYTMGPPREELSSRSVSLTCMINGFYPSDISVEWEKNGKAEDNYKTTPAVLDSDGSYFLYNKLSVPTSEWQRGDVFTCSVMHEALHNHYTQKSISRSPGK

4D5-Fc antibody = conditions: PE-labeled streptavidin; dead cells excluded by 7-AAD
Method: (§1) HEK293 cells were transfected with pcDNA3.1/Zeo(+) carrying scFv-Fc gene comprising anti-Her2 scFv (4D5) linked to Fc genes, using Lipofectamine 2000, and cultured for 5 days. […] The cells were washed once with PBS containing 3% BSA and suspended in 100 μL of PBS containing 3% BSA. […] The cells were washed once again with PBS containing 3% BSA and then dispersed in 100 μL of PBS containing 3% BSA.

SK-BR3 cells [4] = conditions: peptide plus SA-PE label only
Method: as §1

human IgG [5] = biological target: T1, human IgG; experiment: Labeling of various IgG, SDS-PAGE and Western blot with HRP-labeled streptavidin (Example 13); conditions: human monoclonal IgG1; antibody:peptide 1:4; 30 minutes
human IgG [6] = biological target: human IgG (Homo sapiens, UniProt P01859); experiment: as above; conditions: human IgG2; antibody:peptide 1:4; 30 minutes
Sequence of human IgG (Homo sapiens, UniProt P01859) (P01859 1-326 isoform P01859-1): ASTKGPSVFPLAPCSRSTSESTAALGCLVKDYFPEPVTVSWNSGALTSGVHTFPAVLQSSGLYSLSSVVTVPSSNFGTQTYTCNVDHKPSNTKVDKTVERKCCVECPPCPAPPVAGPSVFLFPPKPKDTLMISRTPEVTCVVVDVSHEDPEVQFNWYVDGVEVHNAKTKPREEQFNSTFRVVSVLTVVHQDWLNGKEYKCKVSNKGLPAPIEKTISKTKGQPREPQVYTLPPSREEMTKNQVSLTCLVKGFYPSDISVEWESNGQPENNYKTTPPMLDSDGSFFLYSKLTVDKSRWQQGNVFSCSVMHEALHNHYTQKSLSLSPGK

human IgG [7] = biological target: human IgG (Homo sapiens, UniProt P01861); experiment: as above; conditions: human IgG4; antibody:peptide 1:4; 30 minutes
Sequence of human IgG (Homo sapiens, UniProt P01861) (P01861 1-327 isoform P01861-1): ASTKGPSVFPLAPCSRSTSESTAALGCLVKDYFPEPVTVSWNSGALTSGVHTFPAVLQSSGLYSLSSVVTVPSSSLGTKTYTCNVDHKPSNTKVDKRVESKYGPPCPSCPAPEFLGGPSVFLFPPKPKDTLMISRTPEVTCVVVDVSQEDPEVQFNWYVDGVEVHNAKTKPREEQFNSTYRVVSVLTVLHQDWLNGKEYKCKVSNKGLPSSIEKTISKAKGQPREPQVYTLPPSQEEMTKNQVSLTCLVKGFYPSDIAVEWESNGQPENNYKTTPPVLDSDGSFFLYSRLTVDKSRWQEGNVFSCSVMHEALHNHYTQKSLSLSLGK

hIgG = biological target: T4, hIgG (Homo sapiens, UniProt P01857); experiment: ELISA of reaction between labeled IgG-binding peptide and plate-adsorbed IgG (Example 4)
T4 construct: purchased Chugai Pharmaceutical Co., Ltd
Method: The biotinylated IgG-binding peptide modified with DSG was added at a molar ratio of 2 to hIgG (50 ng) immobilized overnight at 4° C. with a 50 ng/50 μL solution. […] The binding was detected in the same way as in (A).

[8] = test system: hIgA, bovine gelatin, or BSA; experiment: ELISA of reaction between labeled IgG-binding peptide and other plate proteins (Example 4); conditions: excess of labeled peptide reagent
Method: A 0.1 M NaHCO3 solution containing each protein (IgG (Chugai Pharmaceutical Co., Ltd.), IgA (Athens Research & Technology, Inc.), or bovine gelatin (Wako Pure Chemical Industries, Ltd.)) (50 ng (0.33 pmol)/μl/well) was added to wells of a 96-well microplate (Nunc® MaxiSorp), and the plate was left overnight at room temperature to adsorb each protein onto the surface of the plate. […] After a lapse of 1 hour, the reaction was terminated by the addition of 1 M Tris-HCl (pH 7.0) at 3 μL/well. SA-HRP (Vector Laboratories, Inc.) diluted 2000-fold with 0.5% BSA was added thereto at 50 μL/well and reacted at room temperature for 1 hour. Then, the plate was washed five times with 0.1% PBST. Then, a TMB solution (Wako Pure Chemical Industries, Ltd.) was used in the color development of HRP. After 5-minute chromogenic reaction, the absorbance at 450 nm was measured using an ELISA plate reader (model 680 microplate reader (Bio-Rad Laboratories, Inc.)).

## CC(C)C[C@@H]1NC(=O)[C@H](CCC(=O)O)NC(=O)CNC(=O)[C@H](CCCNC(=N)N)NC(=O)[C@H](Cc2c[nH]cn2)NC(=O)[C@H](Cc2ccc(O)cc2)NC(=O)[C@H](C)NC(=O)[C@@H](NC(=O)[C@H](CC(=O)O)NC(=O)[C@@H]2CCCN2C(=O)CNC(=O)CCOCCOCCOCCOCCOCCNC(=O)CCCC[C@@H]2SC[C@@H]3NC(=O)N[C@@H]32)CSSC[C@@H](C(=O)N[C@H](C(=O)N[C@@H](Cc2ccccc2)C(=O)N[C@@H](Cc2c[nH]cn2)C(N)=O)[C@@H](C)O)NC(=O)[C@H](Cc2c[nH]c3ccccc23)NC(=O)[C@H](C(C)C)NC1=O [Type I] ({Biotin-PEG5}-GPDCAYHRGELVWCTFH-NH2; disulfide 4-14)
Human IgG [1]
  ka: 1.57E+06
  kd: 0.0144

## CC[C@H](C)[C@@H]([C@@H](CC(=O)N1CCC[C@H]1[C@H](OC)[C@@H](C)C(=O)N[C@H](C)[C@@H](O)c1ccccc1)OC)N(C)C(=O)[C@@H](NC(=O)[C@H](C(C)C)N(C)C(=O)OCc1ccc(NC(=O)[C@H](CCCNC(N)=O)NC(=O)[C@@H](NC(=O)CCCCCN2C(=O)C=CC2=O)C(C)C)cc1)C(C)C [VcMMAE, maleimidocaproyl-valine-citrulline-p-aminobenzoyloxycarbonyl-monomethyl auristatin E] ({Hexanoyl(6-maleimido)}-V[Cit][PABC][NMeV]V[Dil][Dolaproine]-X1)
SK-BR3 cells [2]
  concentration giving cell growth inhibition: ≥ 250 nM

## Biotin-PEG4-RGNCAYHXGQLVWCTYH-NH2 [DSG-modified IgG-binding peptide]
Human IgG Fc; excessive molar ratio 1:5, pH 4.5
  Fc with a larger number of peptides than two added: not detected
Human IgG Fc; molar ratio 1:1, pH 4.5, room temperature
  unreacted form (peak 2) produced: ≤ 20%
Human IgG Fc; molar ratio 1:2, pH 4.5, room temperature
  unreacted form (peak 2) produced: ≤ 10%
Human IgG Fc; other pH cases (pH 5.5, pH 7.0), molar ratio 1.0
  yield of the adduct of two peptides (peak 4): 35-40%
Human IgG Fc; pH 4.0, pH 5.5 and pH 7.0, molar ratio 1.0, room temperature
  part of the reaction completed within 1 minute: ≥ 90%
Human IgG Fc; pH 4.0, molar ratio 1.0
  amount of the unreacted form remaining: exceeded 40%
  yield of the adduct of two peptides (peak 4): approximately 15%
Human IgG Fc; pH 5.5 and 7.0, molar ratio 1.0
  yield of the unreacted form: ~10%
[3]
  labeling of rabbit polyclonal IgG (staining in Western blot): strongly stained
4D5-Fc antibody
  fluorescence intensity compared with biotinylated anti-human IgG mouse antibody: rarely differed in fluorescence intensity
SK-BR3 cells [4]
  shift in fluorescence intensity without 4D5-Fc: no shift in fluorescence intensity
Human IgG [5]
  labeling of human IgG1 (band in Western blot): dark bands
Human IgG [6]
  labeling of human IgG2 (band in Western blot): dark bands
Human IgG [7]
  labeling of human IgG4 (band in Western blot): dark bands

## labeled IgG-binding peptide modified with DSS: biotinylated IgG-binding (R8K) peptide modified with cross-linking agent, prepared as in Example 2 (GDDCAYHK(DSS)GELVWCTFH-NH2; not fully specified (N-terminus); cysteine pairing not given here; also: biotinylated)
hIgG; IgG and peptide at molar ratio 1:2
  reaction time at which saturation was seen: approximately 15 minutes
hIgG; molar ratios 1 to 10, 1 hour
  molar ratio at which saturation was seen: approximately 5
[8]
  binding to other proteins: not detected
